Assay results reported in publication PMC10877565, “Iso-ADP-Ribose Fluorescence Polarization Probe for the Screening of RNF146 WWE Domain Inhibitors” (ACS Chemical Biology, 2024).
Several values for one entry are separate records, joined by “and”; a condition that tells them apart may be missing. Identical values can stand only once. Entries after “also recorded” stand apart in the source; their conditions may differ. Like-named read-outs stand apart in the source and are kept apart here. One block for each molecule: values may come before it.

How the values were obtained:
[1] = target: T1, RNF146 WWE domain (Homo sapiens, UniProt Q9NTX7); assay: Competitive FP-based binding assay with TAMRA-isoADPr tracer; settings: for IC50: TAMRA-isoADPr 20 nM, RNF146 WWE 100 nM; for Hillslope: IC50 curve of fragment hits
T1 construct: PARP11, PARP14, TiPARP, DTX2, and RNF146 WWE domain plasmids were either cloned or purchased from Twist Biosciences; His tag (N); made in house; host or cells: E. coli BL21(DE3), pET28a
T1 sequence (Q9NTX7 92-168 limits assumed): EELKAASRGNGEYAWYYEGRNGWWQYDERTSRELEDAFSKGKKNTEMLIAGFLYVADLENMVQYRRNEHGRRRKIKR

[2] = system: WWE domains; assay: FP titration of different WWE domains using TAMRA-ADPr; type: binding; settings: Figure S3, n = 3
Description: (§1) We then screened the tracer TAMRA-isoADPr against WWE domains of some other proteins, including PARP11, PARP14, HUWE1, TiPARP, and DTX2, under the same conditions. […] To check the folding of purified WWE domains, we obtained the circular dichroism (CD) spectra for the purified WWE domains, and the results indicated proper folding of all purified proteins (Figure S5). […] The isoADPr binding pocket of RNF146 WWE is special in that the entire pocket is largely positively charged with multiple arginine and lysine residues to interact with both phosphate groups of isoADPr, while this feature is missing in other WWE domains containing proteins (Figure S2). Indeed, RNF146 WWE is the only reported high-affinity binder of the isoADPr monomer, so it is likely that other WWE domains tested are simply too weak binders to show any significant binding at the concentrations tested.
Figure S3. FP titration of different WWE domains using TA M R A -ADPr (n= 3). Data of SA RS-C oV 2 N sp3
Macro (black) is shown here as comparison.
F i g u re S 4. Attempted IC50 measurement and chemical structure of Z1203162033. […]

[3] = target: T2, HUWE1 WWE (Homo sapiens, UniProt Q7Z6Z7); assay: FP titration of WWE domains with TAMRA-isoADPr; type: binding; settings: same conditions as RNF146 WWE titration
T2 construct: The HUWE1 WWE domain was purified as previously reported; made in house
T2 sequence (Q7Z6Z7 1603-1680 limits assumed): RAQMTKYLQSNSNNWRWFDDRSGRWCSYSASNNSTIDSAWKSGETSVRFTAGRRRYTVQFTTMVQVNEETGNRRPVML
Description: as §1
(§2) The purified WWE domain proteins were 3-fold serially diluted from 20 μM to ∼5 nM in the assay buffer (25 mM Tris pH 8.0, 150 mM NaCl, and 0.01% Tween-20). In the assay, 50 μL of the protein solution at each concentration was transferred to a 96-well black plate (Corning, #3915), followed by the addition of 50 μL of TAMRA-isoADPr (40 nM, 2X) in the assay buffer to reach a final volume of 100 μL. The plate was allowed to stand at RT for 30 min and then scanned on Cytation5 equipped with an FP filter cube (Agilent, part number: 8040562, Ex: 530/25, Em: 590/35). mP values were calculated using the equation below [drawing 1] where F// and F⊥ are the parallel and perpendicular fluorescence intensities, respectively, and G is the grating factor of the instrument, which was calibrated so that 20 nM 5-TAMRA has an mP shift of 50. The obtained mP data were fitted in the one-site-specific binding model implemented in GraphPad Prism 9.4.1 (GraphPad Software, Inc.) to give the Kd value using the equation below [drawing 2]

[4] = target: T3, DTX2 WWE (Homo sapiens, UniProt Q86UW9); assay: FP titration of WWE domains with TAMRA-isoADPr; type: binding; settings: same conditions as RNF146 WWE titration
T3 sequence (Q86UW9 98-174 limits assumed): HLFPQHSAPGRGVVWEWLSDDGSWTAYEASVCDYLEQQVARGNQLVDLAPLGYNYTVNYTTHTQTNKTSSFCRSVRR
Description: as §1, §2

[5] = target: T4, TiPARP WWE (Homo sapiens, UniProt Q7Z3E1); assay: FP titration of WWE domains with TAMRA-isoADPr; type: binding; settings: same conditions as RNF146 WWE titration
T4 construct: PARP11, PARP14, TiPARP, DTX2, and RNF146 WWE domain plasmids were either cloned or purchased from Twist Biosciences; made in house; host or cells: E. coli BL21(DE3), pET28a
T4 sequence (Q7Z3E1 332-410 limits assumed): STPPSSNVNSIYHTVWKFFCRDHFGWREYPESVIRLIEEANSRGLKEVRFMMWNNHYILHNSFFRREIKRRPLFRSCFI
Description: as §1, §2

[6] = target: T5, PARP11 WWE (Homo sapiens, UniProt Q9NR21); assay: FP titration of WWE domains with TAMRA-isoADPr; type: binding; settings: same conditions as RNF146 WWE titration
T5 construct: PARP11, PARP14, TiPARP, DTX2, and RNF146 WWE domain plasmids were either cloned or purchased from Twist Biosciences; made in house; host or cells: E. coli BL21(DE3), pET28a
T5 sequence (Q9NR21 22-106 limits assumed): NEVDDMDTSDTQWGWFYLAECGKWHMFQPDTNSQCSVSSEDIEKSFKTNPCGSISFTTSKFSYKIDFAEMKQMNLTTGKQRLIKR
Description: as §1, §2

[7] = target: T6, PARP14 WWE (Homo sapiens, UniProt Q460N5); assay: FP titration of WWE domains with TAMRA-isoADPr; type: binding; settings: same conditions as RNF146 WWE titration
T6 construct: PARP11, PARP14, TiPARP, DTX2, and RNF146 WWE domain plasmids were either cloned or purchased from Twist Biosciences; made in house; host or cells: E. coli BL21(DE3), pET28a
T6 sequence (Q460N5 1523-1601 limits assumed): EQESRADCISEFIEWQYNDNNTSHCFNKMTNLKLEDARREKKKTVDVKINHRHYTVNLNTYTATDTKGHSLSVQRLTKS
Description: as §1, §2

[8] = target: T1, RNF146 WWE domain; assay: FP protein titration of tracer with RNF146 WWE; type: binding; settings: tracer 20 nM, Tris buffer pH 8.0
Procedure: Having obtained the tracer molecule TAMRA-isoADPr, we then examined its binding affinity by FP protein titration experiments, where a fixed concentration of the tracer (20 nM) was titrated with increasing concentrations of RNF146 WWE protein in Tris buffer (pH 8.0), yielding a binding curve with an increasing mP shift (ΔmP) until a plateau was observed.
as §2

[9] = target: T7, RNF146 WWE (Homo sapiens, UniProt Q9NTX7); assay: Fragment library screening by competitive FP, 384-well; type: binding; settings: 100 μM, 1% DMSO
T7 construct: PARP11, PARP14, TiPARP, DTX2, and RNF146 WWE domain plasmids were either cloned or purchased from Twist Biosciences; His tag (N); made in house; host or cells: E. coli BL21(DE3), pET28a
T7 sequence (Q9NTX7 92-168 limits assumed): T1 sequence (Q9NTX7 92-168 limits assumed)
Procedure: To test the performance of the established FP assay in high-throughput formats, we conducted a pilot screen where isoADPr was used as the positive control, and Enamine Essential Fragments Library, which contains 320 fragments, was used as a test case for potential inhibitors. The test library was screened at 100 μM in 1% DMSO under the established conditions in duplicates in two 384-well plates (Figure 4A). In each plate, four controls were used: buffer control, tracer control, negative control, and positive control. Buffer control allowed the detection of background fluorescence, while tracer and negative controls gave mP values of the free tracer and maximally bound tracer, to which inhibition rates of fragment candidates were normalized. […] From these control wells, different assay parameters could be calculated. One important FP assay parameter is the assay window (ΔmP), which is calculated as the difference between the mP value recorded for the bound tracer (i.e., negative control) and the mP value recorded for the free tracer (i.e., tracer control). […] Another parameter general to all HTS assays is the screening window coefficient (Z′ factor). A Z′ factor value between 0.5 and 1 is suitable for HTS.[26] […] Moreover, the coefficients of variation (CV) of both negative and positive control wells were low.
Using epMotion 96 (Eppendorf), 49.5 μL of the assay solution (100 nM RNF146 WWE and 20 nM TAMRA-isoADPr) or control solution (tracer-only, buffer-only, and positive control with additional 100 μM isoADPr) was transferred from a 96-well mother plate to a 384-well black plate (Corning, #3575). […] For each fragment and positive and negative control well, the relative percent binding of the tracer was calculated as described above. Z’ factor was calculated with the following equation [drawing 5] where σP and σN are the standard deviations of ΔmP values of positive and negative control wells, while μP and μN are the mean ΔmP values of positive and negative control wells.

[10] = target: T7, RNF146 WWE; assay: Biolayer interferometry, immobilized biotin-isoADPr with RNF146 WWE; type: binding; settings: BLI
Description: To further validate that our probe indeed can bind to RNF146 WWE, we sought to measure the Kd value of TAMRA-isoADPr toward RNF146 WWE through biolayer interferometry (BLI). A typical BLI experiment relies on an antibody-coated biosensor tip that can capture the protein of interest, and it was then dipped into solutions containing potential interacting molecules (here, referred to as the analyte).[20] The interaction between the protein and the analyte can be measured in real time through monitoring the reflected light pattern upon complex formation on the biosensor surface, giving useful kinetics information, including kon, koff, and Kd. […] Therefore, we synthesized a biotin-labeled isoADPr compound (11, Figure 3A) from 3′-azido-isoADPr, which is structurally analogous to TAMRA-isoADPr. Biotin-isoADPr was immobilized onto SA biosensors that were then dipped into RNF146 WWE solutions of varying concentrations in multiple association–dissociation cycles (Figure S1B). […] The BLI experiment further supports that our tracer design strategy works for RNF146 WWE.
The binding of biotin-isoADPr to the RNF146 WWE was monitored and measured on an Octet RH16 biolayer interferometer. Three replicate streptavidin biosensor tips (SA) were loaded with 1 μM biotin-isoADPr in the kinetics buffer (PBS with 0.02% Tween-20 and 0.1% BSA) for 300 s. After a 300 s baseline step, the loaded sensor tips were moved to sample wells containing RNF146 WWE protein at 0, 12, 49, 187, 750, 3000, 9000, and 18000 nM in the kinetics buffer sequentially in multiple cycles, with each cycle consisting a 300 s association step in the sample well and a 300 s dissociation step in the buffer well. The volume of each well was 200 μL. A reference biosensor without biotin-isoADPr loading was used to exclude the possibilities of nonspecific binding, and reference wells without RNF146 WWE protein were used for blank subtraction. Data were processed and curves were fitted with a 1:1 best-fit model in Octet BLI Analysis software.

[11] = target: T2, HUWE1 WWE; settings: reported; cited from earlier work
[12] = target: T7, RNF146 WWE; settings: isothermal titration calorimetry; read-out: reported Kd; cited from earlier work

SMILES: [N-]=[N+]=N[C@H]1[C@@H](O[C@H]2O[C@H](COP(=O)(O)O)[C@@H](O)[C@H]2O)[C@H](n2cnc3c(N)ncnc32)O[C@@H]1COP(=O)(O)O [3′-azido-isoADPr]
fold more potent than isoADPr ([1]; IC50 compared with isoADPr): 2 fold
IC50 ([1]; 96-well): 0.273 µM

SMILES: CN(C)c1ccc2c(c1)Oc1cc(N(C)C)ccc1C21OC(=O)c2cc(C(=O)NCCCCCCNC(=O)CCc3cn([C@H]4O[C@H](COP(=O)(O)OP(=O)(O)OC[C@H]5O[C@@H](n6cnc7c(N)ncnc76)[C@H](O)[C@@H]5O)[C@@H](O)[C@H]4O)nn3)ccc21 [TAMRA-ADPr]
binding of TAMRA-ADPr [2]: does not bind

SMILES: CN(C)c1ccc2c(c1)Oc1cc(N(C)C)ccc1C21OC(=O)c2cc(C(=O)NCCCCCCNC(=O)CCc3cn([C@H]4[C@@H](O[C@H]5O[C@H](COP(=O)(O)O)[C@@H](O)[C@H]5O)[C@H](n5cnc6c(N)ncnc65)O[C@@H]4COP(=O)(O)O)nn3)ccc21 [TAMRA-isoADPr]
binding of tracer [3]: no binding; also recorded: none of these WWE domains could bind the tracer
binding of tracer [4]: no binding; also recorded: none of these WWE domains could bind the tracer
binding of tracer [5]: no binding; also recorded: none of these WWE domains could bind the tracer
binding of tracer [6]: no binding; also recorded: none of these WWE domains could bind the tracer
binding of tracer [7]: no binding; also recorded: none of these WWE domains could bind the tracer
Kd [8]: 0.0452 µM

SMILES: COc1cc(CC(=O)O)ccc1O [Z1203162033]
binding strength in attempted IC50 measurement ([1]; Figure S4): much weaker binder
percent binding of tracer ([9]; AVERAGE of two plates): 43.4%
percent binding of tracer ([9]; PLATE1): 43.6%
percent binding of tracer ([9]; PLATE2): 43.3%

SMILES: Nc1ncnc2c1ncn2[C@@H]1O[C@H](COP(=O)(O)O)[C@@H](n2cc(COCCOCCOCCOCCNC(=O)CCCC[C@@H]3SC[C@@H]4NC(=O)N[C@@H]43)nn2)[C@H]1O[C@H]1O[C@H](COP(=O)(O)O)[C@@H](O)[C@H]1O [biotin-isoADPr]
Kd ([10]; SA biosensor, 1:1 fit): 0.644 µM
kon ([10]; mean ± error, n = 3): 65700 M⁻¹ s⁻¹
koff ([10]; mean ± error, n = 3, read-out: kdis): 0.0423 s⁻¹

Further lines, with some results ahead:

Hillslope [1]: -1.134
IC50 ([1]; fragment hits): 86.2 µM and 86 µM
SMILES: O=C(O)c1cc2occc2[nH]1 [compound 12]

Hillslope [1]: -1.834
IC50 ([1]; fragment hits): 39.5 µM and 40 µM
SMILES: O=C(O)c1sccc1-n1cccc1 [compound 13]

IC50 ([1]; 96-well): 0.623 µM
SMILES: Nc1ncnc2c1ncn2[C@@H]1O[C@H](COP(=O)(O)O)[C@@H](O)[C@H]1O[C@H]1O[C@H](COP(=O)(O)O)[C@@H](O)[C@H]1O [isoADPr, iso-ADP-ribose]
Kd [11]: 13 µM
Kd [12]: 0.37 µM
